# Results reported in patent publication US9242987B2, “Heterocyclyl pyrazolopyrimidine analogues as JAK inhibitors” (Cellzome Limited, priority 2009, dated 2016).
# Key:
# JAK2 = molecular target: T1, JAK2 (Homo sapiens, UniProt O60674); test: Kinobeads assay, JAK2; format: binding; conditions: mixed Molt4/Ramos cell lysate, dot blot detection
# T1 construct: endogenous in cells; host or cells: Mixed Molt4/Ramos lysate (1:2)
# Procedure, shortened: (§1)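 Lysate from Molt4 and Ramos cells combined 1:2 at 10 mg/mL total protein met test compound and an aminopyrido-pyrimidine affinity matrix for 3 h in the cold. Captured JAK2 and JAK3, after elution, were measured by specific-antibody dot blot on an infrared system; dose-response curves yielded IC50.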
# JAK3 = molecular target: T2, JAK3 (Homo sapiens, UniProt P52333); test: Kinobeads assay, JAK3; format: binding; conditions: mixed Molt4/Ramos cell lysate, dot blot detection
# T2 construct: endogenous in cells; host or cells: Mixed Molt4/Ramos lysate (1:2)
# T2 sequence (P52333 1-1124): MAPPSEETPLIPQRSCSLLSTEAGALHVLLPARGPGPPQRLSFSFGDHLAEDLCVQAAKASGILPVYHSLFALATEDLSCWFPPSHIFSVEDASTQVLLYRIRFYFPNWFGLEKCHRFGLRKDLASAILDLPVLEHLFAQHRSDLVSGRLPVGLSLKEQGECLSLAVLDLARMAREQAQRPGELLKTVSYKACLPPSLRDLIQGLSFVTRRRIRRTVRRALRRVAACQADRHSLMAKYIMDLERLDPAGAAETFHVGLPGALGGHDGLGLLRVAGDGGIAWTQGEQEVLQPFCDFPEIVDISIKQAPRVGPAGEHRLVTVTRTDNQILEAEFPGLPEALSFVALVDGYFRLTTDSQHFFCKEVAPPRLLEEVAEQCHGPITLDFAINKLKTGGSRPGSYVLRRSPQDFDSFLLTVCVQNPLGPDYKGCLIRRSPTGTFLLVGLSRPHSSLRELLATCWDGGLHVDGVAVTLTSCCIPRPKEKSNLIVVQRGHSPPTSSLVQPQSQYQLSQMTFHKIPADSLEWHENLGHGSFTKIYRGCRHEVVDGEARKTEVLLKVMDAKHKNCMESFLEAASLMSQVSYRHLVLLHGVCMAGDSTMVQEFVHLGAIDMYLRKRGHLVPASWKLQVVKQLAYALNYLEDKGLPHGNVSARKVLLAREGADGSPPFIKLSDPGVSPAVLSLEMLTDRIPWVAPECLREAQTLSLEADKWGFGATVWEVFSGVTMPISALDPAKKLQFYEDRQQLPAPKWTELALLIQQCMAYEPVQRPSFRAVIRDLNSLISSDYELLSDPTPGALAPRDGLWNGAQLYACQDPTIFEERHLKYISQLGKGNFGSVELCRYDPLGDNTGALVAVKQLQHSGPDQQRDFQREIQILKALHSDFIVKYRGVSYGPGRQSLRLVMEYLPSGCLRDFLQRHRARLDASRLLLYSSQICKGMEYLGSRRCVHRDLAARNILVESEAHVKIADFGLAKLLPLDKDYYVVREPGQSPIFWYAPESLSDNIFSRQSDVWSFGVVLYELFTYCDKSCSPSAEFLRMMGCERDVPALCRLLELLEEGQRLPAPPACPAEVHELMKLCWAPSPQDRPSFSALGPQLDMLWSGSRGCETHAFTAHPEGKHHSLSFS
# Procedure, shortened: as §1
# T1 sequence (O60674 whole entry): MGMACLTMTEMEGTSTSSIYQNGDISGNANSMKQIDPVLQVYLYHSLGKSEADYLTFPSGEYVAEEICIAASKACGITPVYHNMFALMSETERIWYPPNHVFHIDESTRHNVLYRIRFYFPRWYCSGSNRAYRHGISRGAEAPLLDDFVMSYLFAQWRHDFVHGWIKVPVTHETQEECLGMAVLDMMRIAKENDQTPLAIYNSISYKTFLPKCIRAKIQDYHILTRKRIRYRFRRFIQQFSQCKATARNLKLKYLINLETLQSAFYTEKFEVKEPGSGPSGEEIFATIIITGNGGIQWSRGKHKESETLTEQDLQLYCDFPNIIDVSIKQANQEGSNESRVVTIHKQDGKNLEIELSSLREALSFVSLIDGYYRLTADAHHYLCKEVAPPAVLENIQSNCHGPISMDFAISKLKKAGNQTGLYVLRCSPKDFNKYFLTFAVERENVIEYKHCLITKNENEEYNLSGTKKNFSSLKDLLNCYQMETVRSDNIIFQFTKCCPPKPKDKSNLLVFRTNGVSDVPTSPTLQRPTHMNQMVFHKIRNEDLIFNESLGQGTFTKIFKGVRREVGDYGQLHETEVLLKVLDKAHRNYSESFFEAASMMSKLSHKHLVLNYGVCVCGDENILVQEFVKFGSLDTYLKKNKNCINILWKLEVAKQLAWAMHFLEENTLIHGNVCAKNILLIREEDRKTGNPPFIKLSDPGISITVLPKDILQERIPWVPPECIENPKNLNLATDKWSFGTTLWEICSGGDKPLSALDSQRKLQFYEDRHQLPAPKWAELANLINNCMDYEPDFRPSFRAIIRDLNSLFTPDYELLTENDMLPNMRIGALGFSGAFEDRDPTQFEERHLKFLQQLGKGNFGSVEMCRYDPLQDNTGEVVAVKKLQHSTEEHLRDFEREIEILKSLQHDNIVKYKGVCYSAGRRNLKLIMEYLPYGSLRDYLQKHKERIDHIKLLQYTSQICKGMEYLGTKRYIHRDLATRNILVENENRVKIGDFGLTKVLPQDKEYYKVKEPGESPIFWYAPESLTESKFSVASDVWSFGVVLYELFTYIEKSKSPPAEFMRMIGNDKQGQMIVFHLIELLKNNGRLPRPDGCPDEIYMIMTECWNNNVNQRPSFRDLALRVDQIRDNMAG
Compound,IC50 (JAK2),IC50 (JAK3)
"CC(C)S(=O)(=O)Nc1cccc(Cn2ncc3cnc(Nc4cnn(C)c4)nc32)c1 [Example 141, N-(3-((6-((1-Methyl-1H-pyrazol-4-yl)amino)-1H-pyrazolo[3,4-d]pyrimidin-1-yl)methyl)phenyl)propane-2-sulfonamide]",≥ 10000 nM,100 to 1000 nM
"Cn1cc(Nc2ncc3cnn(Cc4ccc(F)c(F)c4)c3n2)cn1 [Example 78, 1-(3,4-Difluorobenzyl)-N-(1-methyl-1H-pyrazol-4-yl)-1H-pyrazolo[3,4-d]pyrimidin-6-amine]",1000 to 10000 nM,100 to 1000 nM
"NC(=O)c1ccccc1Cn1ncc2cnc(Nc3cnn(CC(F)F)c3)nc21 [Example 42, 2-((6-(1-(2,2-Difluoroethyl)-1H-pyrazol-4-ylamino)-1H-pyrazolo[3,4-d]pyrimidin-1-yl)methyl)benzamide]",1000 to 10000 nM,< 100 nM
"Cn1cc(Nc2ncc3cnn(Cc4cccc(N5CCCC5)n4)c3n2)cn1 [Example 188, N-(1-Methyl-1H-pyrazol-4-yl)-1-((6-(pyrrolidin-1-yl)pyridin-2-yl)methyl)-1H-pyrazolo[3,4-d]pyrimidin-6-amine]",≥ 10000 nM,100 to 1000 nM
"Cn1cnc(Nc2ncc3cnn(Cc4ccccc4F)c3n2)c1 [Example 237, 1-(2-Fluorobenzyl)-N-(1-methyl-1H-imidazol-4-yl)-1H-pyrazolo[3,4-d]pyrimidin-6-amine]",≥ 10000 nM,100 to 1000 nM
"Cn1cc(Nc2ncc3cnn(Cc4cccc(C#N)c4)c3n2)cn1 [Example 68, 3-((6-((1-Methyl-1H-pyrazol-4-yl)amino)-1H-pyrazolo[3,4-d]pyrimidin-1-yl)methyl)benzonitrile]",1000 to 10000 nM,< 100 nM
"CO[C@@H](C)COc1cccc(Cn2ncc3cnc(Nc4cnn(C)c4)nc32)c1 [Example 171, (S)-1-(3-(2-Methoxypropoxy)benzyl)-N-(1-methyl-1H-pyrazol-4-yl)-1H-pyrazolo[3,4-d]pyrimidin-6-amine]",≥ 10000 nM,< 100 nM
"Cn1cc(Nc2ncc3cnn(Cc4cccc(OC(F)(F)F)c4)c3n2)cn1 [Example 86, N-(1-Methyl-1H-pyrazol-4-yl)-1-(3-(trifluoromethoxy)benzyl)-1H-pyrazolo[3,4-d]pyrimidin-6-amine]",≥ 10000 nM,100 to 1000 nM
"Cn1cc(Nc2ncc3cnn(Cc4cccc(F)n4)c3n2)cn1 [Example 170, 1-((6-Fluoropyridin-2-yl)methyl)-N-(1-methyl-1H-pyrazol-4-yl)-1H-pyrazolo[3,4-d]pyrimidin-6-amine]",1000 to 10000 nM,< 100 nM
"Cn1cc(Nc2ncc3cnn(Cc4cccc(C(N)=O)c4)c3n2)cn1 [Example 80, 3-((6-((1-Methyl-1H-pyrazol-4-yl)amino)-1H-pyrazolo[3,4-d]pyrimidin-1-yl)methyl)benzamide]",1000 to 10000 nM,< 100 nM
"Cn1cc(Nc2ncc3cnn(Cc4cccc(C(F)(F)F)c4)c3n2)cn1 [Example 66, N-(1-Methyl-1H-pyrazol-4-yl)-1-(3-(trifluoromethyl)benzyl)-1H-pyrazolo[3,4-d]pyrimidin-6-amine]",≥ 10000 nM,100 to 1000 nM
"Fc1ccccc1Cn1ncc2cnc(Nc3cnn(CC(F)F)c3)nc21 [Example 128, N-(1-(2,2-Difluoroethyl)-1H-pyrazol-4-yl)-1-(2-fluorobenzyl)-1H-pyrazolo[3,4-d]pyrimidin-6-amine]",1000 to 10000 nM,< 100 nM
"Fc1ccccc1Cn1ncc2cnc(Nc3cnn(CCN4CCCCC4)c3)nc21 [Example 143, 1-(2-Fluorobenzyl)-N-(1-(2-(piperidin-1-yl)ethyl)-1H-pyrazol-4-yl)-1H-pyrazolo[3,4-d]pyrimidin-6-amine]",1000 to 10000 nM,< 100 nM
"Cc1c(F)cccc1Cn1ncc2cnc(Nc3cnn(C)c3)nc21 [Example 115, 1-(3-Fluoro-2-methylbenzyl)-N-(1-methyl-1H-pyrazol-4-yl)-1H-pyrazolo[3,4-d]pyrimidin-6-amine]",1000 to 10000 nM,< 100 nM

# Other lines, results leading:
IC50 (JAK2),IC50 (JAK3),Compound
100 to 1000 nM,< 100 nM,"Cn1cc(Nc2ncc3cnn(Cc4c(F)cccc4Cl)c3n2)cn1 [Example 63, 1-(2-Chloro-6-fluorobenzyl)-N-(1-methyl-1H-pyrazol-4-yl)-1H-pyrazolo[3,4-d]pyrimidin-6-amine]"
1000 to 10000 nM,100 to 1000 nM,"Cn1cc(Nc2ncc3cnn(-c4ccc(C(=O)NCCO)cc4)c3n2)cn1 [Example 148, N-(2-Hydroxyethyl)-4-(6-((1-methyl-1H-pyrazol-4-yl)amino)-1H-pyrazolo[3,4-d]pyrimidin-1-yl)benzamide]"
100 to 1000 nM,< 100 nM,"Cn1cc(Nc2ncc3cnn(Cc4ccccc4F)c3n2)cc1C(=O)NCC#N [Example 245, N-(Cyanomethyl)-4-((1-(2-fluorobenzyl)-1H-pyrazolo[3,4-d]pyrimidin-6-yl)amino)-1-methyl-1H-pyrrole-2-carboxamide]"
1000 to 10000 nM,< 100 nM,"Cc1cccc(Cn2ncc3cnc(Nc4cnn(C)c4)nc32)c1 [Example 83, N-(1-Methyl-1H-pyrazol-4-yl)-1-(3-methylbenzyl)-1H-pyrazolo[3,4-d]pyrimidin-6-amine]"
100 to 1000 nM,< 100 nM,Cc1ccc(F)cc1Cn1ncc2cnc(Nc3cnn(C)c3)nc21 [Example 116]
1000 to 10000 nM,< 100 nM,"COc1nn(CCO)cc1Nc1ncc2cnn(Cc3ccccc3C#N)c2n1 [Example 44, 2-((6-(1-(2-Hydroxyethyl)-3-methoxy-1H-pyrazol-4-ylamino)-1H-pyrazolo[3,4-d]pyrimidin-1-yl)methyl)benzonitrile]"
1000 to 10000 nM,100 to 1000 nM,"Cc1nn(CC(F)F)cc1Nc1ncc2cnn(Cc3ccccc3C(N)=O)c2n1 [Example 43, 2-((6-(1-(2,2-Difluoroethyl)-3-methyl-1H-pyrazol-4-ylamino)-1H-pyrazolo[3,4-d]pyrimidin-1-yl)methyl)benzamide]"
1000 to 10000 nM,< 100 nM,"Cn1cc(Nc2ncc3cnn(Cc4ccccc4OC(F)(F)F)c3n2)cn1 [Example 85, N-(1-Methyl-1H-pyrazol-4-yl)-1-(2-(trifluoromethoxy)benzyl)-1H-pyrazolo[3,4-d]pyrimidin-6-amine]"
100 to 1000 nM,< 100 nM,"OCCn1cc(Nc2ncc3cnn(Cc4cccc(F)n4)c3n2)cn1 [Example 314, 2-(4-((1-((6-Fluoropyridin-2-yl)methyl)-1H-pyrazolo[3,4-d]pyrimidin-6-yl)amino)-1H-pyrazol-1-yl)ethanol]"
100 to 1000 nM,< 100 nM,"CN1CCCC(Cn2cc(Nc3ncc4cnn(Cc5ccccc5F)c4n3)cn2)C1 (stereo not shown) [Example 192, 1-(2-Fluorobenzyl)-N-(1-((1-methylpiperidin-3-yl)methyl)-1H-pyrazol-4-yl)-1H-pyrazolo[3,4-d]pyrimidin-6-amine]"
100 to 1000 nM,< 100 nM,"Fc1ccccc1Cn1ncc2cnc(Nc3cnn(CCN4CCOCC4)c3)nc21 [Example 124, 1-(2-Fluorobenzyl)-N-(1-(2-morpholinoethyl)-1H-pyrazol-4-yl)-1H-pyrazolo[3,4-d]pyrimidin-6-amine]"
100 to 1000 nM,< 100 nM,"N#Cc1ccc(F)cc1Cn1ncc2cnc(Nc3cnn(CC(F)F)c3)nc21 [Example 130, 2-((6-((1-(2,2-Difluoroethyl)-1H-pyrazol-4-yl)amino)-1H-pyrazolo[3,4-d]pyrimidin-1-yl)methyl)-4-fluorobenzonitrile]"
100 to 1000 nM,100 to 1000 nM,"CN(c1ccc(-n2ncc3cnc(Nc4cnn(C)c4)nc32)cc1)S(C)(=O)=O [Example 17, N-Methyl-N-(4-(6-(1-methyl-1H-pyrazol-4-ylamino)-1H-pyrazolo[3,4-d]pyrimidin-1-yl)phenyl)methanesulfonamide]"
100 to 1000 nM,< 100 nM,"CC(O)Cn1cc(Nc2ncc3cnn(Cc4ccccc4F)c3n2)cn1 (stereo not shown) [Example 89, 1-(4-((1-(2-Fluorobenzyl)-1H-pyrazolo[3,4-d]pyrimidin-6-yl)amino)-1H-pyrazol-1-yl)propan-2-ol]"
100 to 1000 nM,< 100 nM,"OCCn1cc(Nc2ncc3cnn(Cc4c(F)cccc4F)c3n2)cn1 [Example 73, 2-(4-((1-(2,6-Difluorobenzyl)-1H-pyrazolo[3,4-d]pyrimidin-6-yl)amino)-1H-pyrazol-1-yl)ethanol]"
